Test results as given in article PMC6978800, “FAMIN Is a Multifunctional Purine Enzyme Enabling the Purine Nucleotide Cycle” (Cell, 2020).

What was measured:
[1] = target: T1, YlmD (Geobacillus stearothermophilus, UniProt P84138); experiment: LC-MS of inosine and adenine; assay type: biochemical; conditions: 10 μM substrate, PBS pH 7.4, 37°C, 1 h
T1 construct: gene pgeF; synthetic gene in pPSG-IBA105 (Strep-tag); expressed in E. coli BL21(DE3); StrepTrap and size exclusion
T1 sequence (P84138 1-274): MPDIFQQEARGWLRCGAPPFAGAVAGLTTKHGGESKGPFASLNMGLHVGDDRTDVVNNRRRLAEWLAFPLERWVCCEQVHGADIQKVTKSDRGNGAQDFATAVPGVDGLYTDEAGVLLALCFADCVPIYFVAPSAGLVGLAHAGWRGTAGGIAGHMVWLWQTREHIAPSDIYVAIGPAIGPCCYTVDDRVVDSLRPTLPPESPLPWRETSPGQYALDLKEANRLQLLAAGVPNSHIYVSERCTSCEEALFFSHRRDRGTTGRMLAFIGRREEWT

[2] = target: T2, FAMIN^254I (Homo sapiens, UniProt Q8IV20); experiment: LC-MS product quantitation, Michaelis-Menten; assay type: biochemical; conditions: PBS pH 7.4, 37°C; phosphate as co-substrate of phosphorolysis; read-out: apparent Km
T2 construct: gene LACC1; full-length, N-terminal Twin-Strep-tag with TEV site, tag cut (kept in select experiments); expressed in HEK293T; monomer; 430 residues
T2 sequence (Q8IV20 1-430): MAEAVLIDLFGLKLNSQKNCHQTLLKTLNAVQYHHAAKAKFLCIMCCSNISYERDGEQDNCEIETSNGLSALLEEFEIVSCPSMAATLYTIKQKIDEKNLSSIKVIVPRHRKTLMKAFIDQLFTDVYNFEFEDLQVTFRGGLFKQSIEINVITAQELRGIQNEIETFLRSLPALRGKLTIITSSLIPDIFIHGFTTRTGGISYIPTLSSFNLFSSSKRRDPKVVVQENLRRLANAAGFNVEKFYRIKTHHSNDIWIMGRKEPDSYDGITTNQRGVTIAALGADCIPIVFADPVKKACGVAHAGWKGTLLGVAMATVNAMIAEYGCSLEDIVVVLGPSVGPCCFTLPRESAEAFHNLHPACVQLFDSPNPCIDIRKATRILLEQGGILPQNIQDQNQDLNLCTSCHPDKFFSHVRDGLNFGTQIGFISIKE

[3] = target: T3, YfiH (Escherichia coli, UniProt P33644); experiment: LC-MS of inosine and adenine; assay type: biochemical; conditions: 10 μM substrate, PBS pH 7.4, 37°C, 1 h
T3 construct: gene pgeF; synthetic gene in pPSG-IBA105 (Strep-tag); expressed in E. coli BL21(DE3); StrepTrap and size exclusion
T3 sequence (P33644 1-243): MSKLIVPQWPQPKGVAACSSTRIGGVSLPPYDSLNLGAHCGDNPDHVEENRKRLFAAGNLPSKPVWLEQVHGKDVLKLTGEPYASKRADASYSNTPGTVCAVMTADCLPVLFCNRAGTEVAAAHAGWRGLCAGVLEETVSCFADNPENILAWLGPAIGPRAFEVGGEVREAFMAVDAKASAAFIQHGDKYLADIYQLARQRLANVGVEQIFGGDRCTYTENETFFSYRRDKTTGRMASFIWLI

[4] = target: T1, YlmD; experiment: X-ray crystal structure, soaked crystals, […] Å; assay type: binding; conditions: soak with 18.7 mM inosine, 0.5 mM sodium phosphate, 0.5 mM zinc sulfate, pH 7.5; active site, ribose partially hydrolyzed or disordered
[5] = target: T1, YlmD; experiment: LC-MS of adenine; assay type: biochemical; conditions: 10 μM substrate, PBS pH 7.4, 37°C, 1 h

Row | Km [2] | Structure (SMILES) | LC-MS of inosine and adenine [1] | LC-MS of inosine and adenine [3] | X-ray crystal structure, soaked crystals, 1.2 Å [4] | LC-MS of adenine [5]
1 | 41 µM | O=c1[nH]cnc2c1ncn2[C@@H]1O[C@H](CO)[C@@H](O)[C@H]1O [Inosine] | – | – | unambiguously identifying the purine ring of a bound inosine molecule | –
2 | 1 µM | CSC[C@H]1O[C@@H](n2cnc3c(N)ncnc32)[C@H](O)[C@@H]1O [S-methyl-5′-thioadenosine] | – | – | – | YlmD and YfiH metabolized adenosine to inosine and adenine, MTA to adenine

Row | Structure (SMILES) | Km [2] | LC-MS of inosine and adenine [1] | LC-MS of inosine and adenine [3] | X-ray crystal structure, soaked crystals, 1.2 Å [4] | LC-MS of adenine [5]
3 | Nc1ncnc2c1ncn2[C@@H]1O[C@H](CO)[C@@H](O)[C@H]1O [Adenosine] | 36 µM | YlmD and YfiH metabolized adenosine to inosine and adenine, MTA to adenine | YlmD and YfiH metabolized adenosine to inosine and adenine, MTA to adenine | – | –
